Activity calls are given as the source filed them. The calls are words filed in the database; no cut-off is given here.

For data set [1], the target named is Programmed cell death 1 ligand 1 (Homo sapiens, UniProt Q9NZQ7). Briefly: Inhibition of exosomal PD-L1 (unknown origin) generation preincubated with compound for 24 hrs followed by strep-d2 acceptor bead addition and measured after 30 mins by HTRF assay.
Data set [2] can be described thus: Cmax in Sprague-Dawley rat at 25 mg/kg, po measured upto 24 hrs by LC-MS/MS analysis. The data set is classed as ADME, organism-based. The note with it: in vivo.
The test system of data set [3] is MGC-803. Briefly: Sensitization of human MGC-803 cells to CD8-positive T cell assessed as increase in IFN-gamma level by ELISA analysis. The data set is classed as functional, cell-based. The note with it: dose <= 400.0 nM.
The subject of data set [4] is MFC. Briefly: Antitumor activity against mouse MFC cells transfected with OVA implanted in female mouse assessed as decrease in accumulation of exosomal PD-L1 in tumor at 25 mg/kg, po. The data set is classed as functional, organism-based.
Data set [5] can be described thus: Toxicity in female mouse xenografted with mouse MFC cells transfected with OVA assessed as kidney damage at 25 mg/kg, po by H and E staining based analysis. The data set is classed as organism-based. Particulars: in vivo.
Data set [6] deals with MFC. Kind of data set: Antitumor activity against mouse MFC cells transfected with OVA implanted in female mouse assessed as decrease in accumulation of exosomal PD-L1 in tumor at 25 mg/kg, po in presence of anti-PD-1 antibody. The data set is classed as functional, organism-based.
Data set [7] in a line: Tmax in Sprague-Dawley rat at 25 mg/kg, po measured upto 24 hrs by LC-MS/MS analysis. The data set is classed as ADME, organism-based. The note with it: in vivo.
A short description of data set [8]: Toxicity in female mouse xenografted with mouse MFC cells transfected with OVA assessed as spleen damage at 25 mg/kg, po by H and E staining based analysis. The data set is classed as organism-based. Particulars: in vivo.
Data set [9] concerns MFC. Kind of data set: Antiproliferative activity against mouse MFC cells transfected with OVA assessed as inhibition of cell proliferation measured for 48 hrs in presence of anti-mouse PD-1 antibody by MTS assay. The data set is classed as functional, cell-based.
A short description of data set [10]: Toxicity in female mouse assessed as effect on body weight at 25 mg/kg, po in presence of anti-mouse PD-1 antibody. The data set is classed as organism-based. The note with it: in vivo.
The next data set has as its system PDC-GC-239. Kind of data set: Sensitization of human poor differentiated gastric cancer PDC-GC-239 cells to CD8-positive T cell assessed as increase in activated T cells measured for 48 hrs by MTS assay. The data set is classed as functional, cell-based.
Data set [11] concerns MGC-803. Kind of data set: Sensitization of human MGC-803 cells to CD8-positive T cell assessed as increase in IL-2 level by ELISA analysis. The data set is classed as functional, cell-based. The note with it: dose <= 400.0 nM.
Data set [12] concerns MFC. Briefly: Antitumor activity against mouse MFC cells implanted in female mouse assessed as tumor growth inhibition at 25 mg/kg, po in presence of anti-mouse PD-1. The note with it: read-out: TGI.
Data set [13] concerns MGC-803. Briefly: Sensitization of human MGC-803 cells to CD8-positive T cell assessed as increase in activated T cells at 400 nM measured for 48 hrs in presence of recombinant PD-1 by MTS assay. The data set is classed as functional, cell-based.
Another data set relates to PDC-GC-919. Briefly: Sensitization of human poor differentiated gastric cancer PDC-GC-919 cells to CD8-positive T cell assessed as increase in activated T cells measured for 48 hrs by MTS assay. The data set is classed as functional, cell-based.
The nature of data set [14]: AUC (0 to infinity) in Sprague-Dawley rat at 25 mg/kg, po measured upto 24 hrs by LC-MS/MS analysis. The data set is classed as ADME, organism-based. Particulars: in vivo.
Data set [15] concerns MFC. Kind of data set: Antitumor activity against mouse MFC cells implanted in female mouse assessed as tumor growth inhibition at 25 mg/kg, po. The note with it: read-out: TGI.
A short description of data set [16]: Half life in Sprague-Dawley rat at 25 mg/kg, po measured upto 24 hrs by LC-MS/MS analysis. The data set is classed as ADME, organism-based. Particulars: in vivo.
The test system of data set [17] is MGC-803. Briefly: Inhibition of exosomal PD-L1 expression in human MGC-803 cells incubated for 24 hrs by Western blot analysis. The data set is classed as functional, cell-based. Particulars: dose <= 400.0 nM.
In data set [18] the test system is MGC-803. Kind of data set: Effect on exosomes generation in human MGC-803 cells at 400 nM measured for 24 hrs. The data set is classed as functional, cell-based.
Data set [19] relates to MFC. Kind of data set: Antitumor activity against mouse MFC cells transfected with OVA implanted in female mouse assessed as increase in IL-2 level in tumor at 25 mg/kg, po in presence of PD-1 antibody by ELISA analysis. The data set is classed as functional, organism-based.
The nature of data set [20]: Clearance in Sprague-Dawley rat at 25 mg/kg, po measured upto 24 hrs by LC-MS/MS analysis. The data set is classed as ADME, organism-based. The note with it: in vivo.
Data set [21] deals with MFC. Kind of data set: Antitumor activity against mouse MFC cells implanted in female mouse assessed as reduction in tumor weight at 25 mg/kg, po in presence of anti-mouse PD-1. The data set is classed as functional, organism-based.
Data set [22] relates to MFC. Kind of data set: Antitumor activity against mouse MFC cells transfected with OVA implanted in female mouse assessed as increase in IFN-gamma level in tumor at 25 mg/kg, po in presence of PD-1 antibody by ELISA analysis. The data set is classed as functional, organism-based.
Data set [23] in a line: Toxicity in female mouse xenografted with mouse MFC cells transfected with OVA assessed as lung damage at 25 mg/kg, po by H and E staining based analysis. The data set is classed as organism-based. The note with it: in vivo.
Data set [24] is described as follows: Toxicity in female mouse xenografted with mouse MFC cells transfected with OVA assessed as liver damage at 25 mg/kg, po by H and E staining based analysis. The data set is classed as organism-based. The note with it: in vivo.
Data set [25] deals with MGC-803. Kind of data set: Sensitization of human MGC-803 cells to CD8-positive T cell assessed as increase in activated T cells measured for 48 hrs in presence of Nivolumab by MTS assay. The data set is classed as functional, cell-based.
Another data set has as its system T-cell. Kind of data set: Cytotoxicity against mouse T cell at 100 uM measured for 24 hrs by MTS assay. The data set is classed as toxicity, cell-based.
In data set [26] the test system is MGC-803. Briefly: Sensitization of human MGC-803 cells to CD8-positive T cell assessed as increase in TNF-alpha level by ELISA analysis. Particulars: dose <= 400.0 nM. The data set is classed as functional, cell-based.
In data set [27] the test system is MFC. Kind of data set: Antitumor activity against mouse MFC cells transfected with OVA implanted in female mouse assessed as increase in TNF-alpha level in tumor at 25 mg/kg, po in presence of PD-1 antibody by ELISA analysis. The data set is classed as functional, organism-based.
Data set [28] in a line: Toxicity in female mouse xenografted with mouse MFC cells transfected with OVA assessed as heart damage at 25 mg/kg, po by H and E staining based analysis. The data set is classed as organism-based. The note with it: in vivo.

Chain of Programmed cell death 1 ligand 1 (Q9NZQ7 whole entry): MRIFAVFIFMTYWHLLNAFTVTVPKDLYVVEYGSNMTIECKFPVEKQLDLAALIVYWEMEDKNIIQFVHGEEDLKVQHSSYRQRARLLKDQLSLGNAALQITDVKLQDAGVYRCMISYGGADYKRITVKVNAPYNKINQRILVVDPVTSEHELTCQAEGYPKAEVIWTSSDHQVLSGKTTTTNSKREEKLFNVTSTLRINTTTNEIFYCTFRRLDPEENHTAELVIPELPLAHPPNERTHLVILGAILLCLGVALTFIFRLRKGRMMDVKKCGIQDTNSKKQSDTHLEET

As to `Nc1ccc(-c2ccc(C(=O)NCCN3CCOCC3)cc2)cc1`, the IC50 in data set [1] worked out at 336 nM.
On the same count and under the same terms, the result for `COc1ccc(-c2ccc(C(=O)NCCN3CCOCC3)cc2)cn1` reads 669 nM; that for `O=C(NCCN1CCOCC1)c1ccc(-c2ccc3c(c2)OCCO3)cc1`, 153 nM; that for `O=C(NCCN1CCOCC1)c1ccc(-c2ccc(C(F)(F)F)cc2)cc1`, 6820 nM.
Take `Cn1nccc1-c1ccc(C(=O)NCCN2CCOCC2)cc1`: the IC50 in data set [1] amounted to 286 nM.
For `O=C(NCCN1CCOCC1)c1ccc(Cl)cc1` [MOCLOBEMIDE], the IC50 in data set [1] is 3860 nM.
Still for that read-out and setting: the result for `O=C(NCCN1CCOCC1)c1ccc(-c2cc3ccccc3s2)cc1` reads 648 nM.
The same measure, in the same setting: in the case of `CCOC(C)n1cc(-c2ccc(C(=O)NCCN3CCOCC3)cc2)cn1` (centres undefined) it was 753 nM.
In the case of `O=C(NCCN1CCOCC1)c1ccc(-c2cncnc2)cc1`, the IC50 in [1] came out at 571 nM.
In the case of `COc1ncc(-c2ccc(C(=O)NCCN3CCOCC3)cc2)cn1`, the IC50 in data set [1] was 461 nM.
Turning to `O=C(NCCN1CCOCC1)c1ccc(-c2ccn(C3CCCCO3)n2)cc1` (centres undefined), the IC50 in data set [1] turned out to be 2590 nM.
`O=C(NCCN1CCOCC1)c1ccc(-c2ccc3cc4ccccc4cc3c2)cc1`: the IC50 in data set [1] was over 10000 nM.
As to `O=C(NCCN1CCOCC1)c1ccc(-c2ccc(F)cc2)cc1`, the IC50 in [1] came to 2240 nM.
`Cn1ccc2cc(-c3ccc(C(=O)NCCN4CCOCC4)cc3)ccc21`: the IC50 in data set [1] worked out at 217 nM.
As for `O=C(NCCN1CCOCC1)c1ccc(-c2cnc3[nH]ccc3c2)cc1`, the highest level in data set [2] (Cmax) was 1210 ng/mL. Moreover, the Activity result is “Dose-Dependent Effect” in the data set with MGC-803 [3]; “Non-Toxic” in data set [5]; “Non-Toxic” in data set [8]; “Non-Toxic” in [10]; “Dose-Dependent Effect” in the data set on MGC-803 [11]; “Non-Toxic” in data set [23]. The Activity result in data set [24] was “Non-Toxic”; in the data set with T-cell it was “Non-Toxic”; with MGC-803 [26], “Dose-Dependent Effect”; in data set [28], “Non-Toxic”. Besides, the outcome in the data set with MFC [4], in the data set with MFC [6], in the data set with MFC [9], with PDC-GC-239, with MGC-803 [13] and with PDC-GC-919 was Active. In addition, the result in the data set on MGC-803 [18], in the data set on MFC [19], in the data set with MFC [21], with MFC [22], in the data set on MGC-803 [25] and in the data set on MFC [27] was Active. Moreover, the Tmax in data set [7] amounted to 0.25 h. In addition, the inhibition in vivo at 25 mg/kg in the data set on MFC [12] is 69%; in the data set on MFC [15] it was 32%. The same molecule came in with an AUC in data set [14] of 1668.51 ng·h/mL. This molecule also gave a half-life in data set [16] of 2.73 h. For the same molecule, the inhibition entry in the data set with MGC-803 [17] is “Dose-Dependent Effect”. The CL in data set [20] is 587.3 mL/min/kg. For the same molecule, in data set [1], the IC50 amounted to 108 nM.
As to `COc1ccc(-c2ccc(C(=O)NCCN3CCOCC3)cc2)cc1F`, the IC50 in data set [1] came out at 623 nM.
Regarding `N#Cc1ccc(-c2ccc(C(=O)NCCN3CCOCC3)cc2)cc1`, in [1], the IC50 was 498 nM.
Same read-out and setting: the result for `O=C(NCCN1CCOCC1)c1ccc(-c2ccccc2)cc1` reads 1540 nM; that for `CC(C)(C)OC(=O)Nc1ccc(-c2ccc(C(=O)NCCN3CCOCC3)cc2)cc1`, 681 nM.

For the origin of these results see ChEMBL document CHEMBL5505976, “Identification of the exosomal PD-L1 inhibitor to promote the PD-1 targeting therapy of gastric cancer” (Eur J Med Chem, 2024).
